Results on 2 compounds are retold here after patent US20070117834A1, “Methods and compositions for treating Huntington's disease” (priority 2005, published 2007).

The test system of series [1] is wildtype Drosophila fruit flies. Put plainly: Toxicity of dimebon in wildtype Drosophila (eclosion number and timing). It is filed as in vivo. As for the experimental part:
Dimebon was evaluated for toxicity levels in wildtype Drosophila fruit flies. Dimebon was administered daily at doses ranging from 10 μM to 1 mM to explore its toxicity. An untreated control group was also studied in this experiment. The concentrations given were concentrations of dimebon in the food that animals drink/eat ad libitum. The food consisted of cornmeal (61.2 g), dextrose (129.4. g), yeast (32.4 g) and agar (9.3 g) in 1 liter of water. Concentrated compounds were added to melted agar food cooled to just above the point of setting (about 40° C.), mixed and dispensed.
About 500 wild type Drosophila eggs were collected on grape juice plates for 20 hours, washed with distilled water and transferred 100 per vial to grow at 25 degrees C. The adult progeny were scored after eclosing (emerging from the pupal case) beginning 10 days later to assess developmental delay and toxicity. The criteria used for toxicity were the number (%) of animals that eclose and the time of the eclosing. For example, fewer animals may emerge from the pupal case if a drug is toxic or the same number of animals may eclose but more slowly than the untreated control group.
The toxicity test employed five concentrations (10 μM, 30 μM, 100 μM, 300 μM, 1 mM) plus an untreated control and was repeated with five sets of flies. […] At 1 mM, there was approximately a 20% decrease in eclosion observed, indicating toxicity at this food concentration. ANOVA analysis indicated a significant difference between datasets (p=0.0031), with post-hoc testing indicating a significant difference between the control and 1 mM datasets (p<0.01).

In series [2] the test system is transgenic Drosophila engineered to express the mutant huntingtin protein in all their neurons. Put plainly: Inhibition of mutant huntingtin-induced neurodegeneration of photoreceptor neurons in Drosophila eyes (pseudopupil scoring). The format is in vivo. The following applies: for rescue of photoreceptor neurons / rescue of photoreceptor neurons compared to untreated controls: FIG. 2; for rescue of photoreceptor neurons compared to untreated controls: 7 days on drug-containing food; for suppression of photoreceptor neuron degeneration, retest: FIG. 3; for protection of photoreceptors, overall statement: in vivo. As to the method: Dimebon was administered to one group of transgenic Drosophila engineered to express the mutant huntingtin protein in all their neurons. This was accomplished by cloning a foreign gene into transposable p-element DNA vectors under control of a yeast upstream activator sequence that is activated by the yeast GAL4 transcription factor. These promoter fusions were injected into fly embryos to produce transgenic animals. The foreign gene is silent until crossed to another transgenic strain of flies expressing the GAL4 gene in a tissue specific manner. The Elav>Gal4 which expresses the transgene in all neurons from birth until death was used in the experiments described.
For compound testing, 20-30 Httex1pQ93 virgins were mated to elav>Gal4 males and eggs were collected for about 20 hours at 25° C. and dispensed into vials (expected about 70% lethality from Htt effects). Upon eclosion, at least 80, 0-8 hour old flies were harvested and place on drug-containing food (20 eclosed adults per vial) and scored when 7 days old. Inhibitor-containing food was prepared just before tester flies began to emerge.
The two types of transgenic animals were crossed in order to collect enough closely matched aged controls to study. The crossed aged-matched adults (about 20 per dosing group) were placed on drug-containing food for 7 days. Animals were transferred to fresh food daily to minimize any effects caused by instability of the compounds. Survival was scored daily. The average number of photoreceptors at day zero was determined by scoring 7-10 of the newly eclosed tester siblings within six hours of eclosing. This established the baseline of degeneration at the time of exposure to drug. At day 7, animals were sacrificed and the number of photoreceptor neurons surviving was counted. […] For pseudopupil analysis, flies were decapitated and the heads are mounted in a drop of nail polish on a microscopic slide. The head was then covered with immersion oil and light is projected through the eye of the fly using a Nikon EFD-3/Optiphot-2 compound microscope with a 50× oil objective.

Series [3] has the same test system. Briefly: Motor ability (climbing assay) in the Drosophila model. The format is in vivo. The settings on record: for numbers surviving to be tested at day 7: initial number of 20 animals at day 0. As to the method: The motor function of Drosophila obtained as described in the examples above was assessed by exploiting the strong negative geotropism of flies to climb upwards when they are tapped to the bottom of a vial. See, Le Bourg and Lint (1992) Hypergravity and aging in Drosophila melanogaster. 4. […] activity. Gerontology 38, 59-64. Animals were placed in a graduated vessel (e.g., a measuring cylinder). The distance climbed in 10 seconds was measured for each animal over 3 trials with a 5 minute rest period. In a separate experiment using tall thin plastic tubes rather than glass vials, the distance climbed in 30 seconds was also measured. Animals were scored for outcome without knowledge of treatment group. Flies were tested for functional rescue using a behavior assay (climbing assay) where the distance climbed was measured. […] In this assay, climbing was scored blind and each animal was given 3 trials that were then averaged. The climbing of 7 day old animals reared on 0, 10, 100 or 1,000 μM containing food was compared as was the climbing of animals on the day of eclosion. Two trials were performed. In the first, the ability to climb in large glass vials was monitored over 10 seconds. […] The second trial was similar to the first except that animals were tested in tall thin plastic tubes for climbing over 30 seconds. […] The data from the two independent climbing trials are plotted as individual data points in FIG. 6A and 6B. A higher statistical power (e.g., 0.8) given the observed standard deviations and differences of the means may be achieved by doubling the size of the experiment for the highest concentration and increasing about 10 fold for the lower concentrations.

For series [4] the test system is unchanged. The settings on record: historical reference; cited from earlier work.

Entries after “also recorded” stand apart in the source; their conditions may differ.

Turning to `Cc1ccc2c(c1)c1c(n2CCc2ccc(C)nc2)CCN(C)C1.Cl.Cl` [dimebon, 2,8-dimethyl-5-(2-(6-methyl-3-pyridyl)-ethyl)-2,3,4,5-tetrahydro-1H-pyrido[4,3-b]indole dihydrochloride], in series [1] (1 mM), the “timing of emergence slowed” value is “approximately 1 day”. This compound came in with a decrease in eclosion in series [1] (1 mM in the food) of roughly 20%. Further, the “toxicity (tolerability)” value in series [1] (10 to 300 μM in the food, below 1 mM, dihydrochloride) is reported as “generally well tolerated; also recorded: no significant toxicity”. In addition, the “toxicity in Drosophila, overall statement” value in series [1] (FIG. 1 / experimental summary) is “minimal toxicity”. Moreover, the “rescue of photoreceptor neurons” value in series [2] (10 μM) is “lesser but still apparent rescue of neurons”; in series [2] (1 mM), “still appeared to cause neuronal rescue, but to a lesser extent”. Besides, the “rescue of photoreceptor neurons compared to untreated controls” value in series [2] (100 μM, dihydrochloride) was “statistically significant (p=0.0014) rescue of neurons”; in series [2] (100 μM, listed as Dimebon, dihydrochloride) it was “significant suppression of neuronal degeneration”. Further, the “suppression of photoreceptor neuron degeneration, retest” value in series [2] (100 μM, dihydrochloride) is “significant improvement; also recorded: significant rescue”; in series [2] (higher doses (300 or 1,000 μM)), “no statistically demonstrable improvement”. Moreover, the “suppression of photoreceptor neuron degeneration, lower concentrations” value in series [2] (1, 10 and 30 μM, FIG. 4, dihydrochloride) is given as “no statistically significant improvement; also recorded: modest tendency for improved photoreceptor numbers”. In addition, the “protection of photoreceptors, overall statement” value in series [2] (dihydrochloride) is “effective in inhibiting mutant huntingtin-induced neurodegeneration”; in series [2] (listed as Dimebon, dihydrochloride), “protect photoreceptors in a dose-dependant manner”. Further, the “previously measured optimum concentration” value in series [2] (photoreceptor rescue) was found to be 100 µM. The “numbers surviving to be tested at day 7” value was 8 in series [3] (10 μM), 12 in series [3] (100 μM) and 8 in series [3] (1 mM). Further, in series [3] (1 mM (1000 μM), 7 day old animals, glass vials, FIG. 5, dihydrochloride), the “climbing behavior over 10 seconds” value is “significant difference between the control and 1000 μM; also recorded: statistically significant improvement in climbing; also recorded: statistical difference between D7ND and 1 mM”. Also, in series [3] (10, 100 or 1,000 μM, tall thin plastic tubes, second trial, dihydrochloride), the “climbing behavior over 30 seconds” value was “No statistically demonstrable difference between treated and control groups”.

`C[C@@H](N)[C@H]1CC[C@H](C(=O)Nc2ccncc2)CC1` [Y-27632]: the “rescue of photoreceptor neurons, historical positive control” value in series [4] is recorded as “strongly rescuing”.
